Experimental data reported in ChEMBL document CHEMBL1155107, “Oxidative transformation of 2-acetylaminofluorene by a chemical model for cytochrome P450: A water-insoluble porphyrin and tert-butyl hydroperoxide” (Bioorg Med Chem, 2008).

System: Salmonella typhimurium
Test: Toxicity in Salmonella Typhimurium TA1538 assessed as induction of mutagenicity using cytochrome P450 chemical model after 44 hrs by Ames test
Type: organism-based
Conditions: salmonella enterica subsp. enterica serovar typhimurium

For `CC(=O)Nc1ccc2c(c1)Cc1ccccc1-2` [2-ACETYLAMINOFLUORENE], the Activity was “Dose-dependent effect”.
